“Also recorded” adds a separate entry of the source.
Tests used:
[1] = system: C2C12-α2β1 cells; test: xCELLigence real-time adhesion of C2C12-α2β1 cells; format: cell-based, mouse; conditions: up to 1 h, compared to GFOGER, Fig. 6B
[2] = system: human recombinant GST-α10-R215Q I-domain; test: SPBA of α10-R215Q mutant I domain; format: binding; conditions: 2 mM MgCl2, relative to wild type α10 I domain, Fig. 8F, Fig. 9
From the text: The I domain was first applied to the collagen II and III Toolkits in the presence or absence of Mg^2 +, detected using anti-GST as before, and data are shown in Fig. 9A and B. α10-R215Q I domain binding was Mg^2 +-dependent, reproducing the wild type Toolkit II data shown in Fig. 1A.
(§1) pGEX-2T-α1, α2 and α10 I were used to generate the Q to R or R to Q mutations using QuikChange PCR kit from Stratagene (200518).
To express α2 wild type and mutant I domains, a 100-ml overnight culture of transformants (Origami strain) was used to inoculate 1 L of Luria broth containing 100 μg/ml ampicillin, 15 μg/ml Kanamycin and 12.5 μg/ml Tetracyclin. The culture was grown for 2 h at 37 °C and then induced at room temperature for 4 h with isopropyl β-D-thiogalactopyranoside (0.1 mM, Melford Laboratories, UK, #MB1008). Cells were harvested by centrifugation at 4500g for 20 min, and pellets for GST-fusion were resuspended in 10 ml Dulbecco's phosphate-buffered saline, containing 1 tablet of protease inhibitor cocktail (Roche) and 5 mg of lysozyme (Fluka). Suspensions were sonicated and Triton X-100 was added to 1% (v/v). Suspensions were mixed on a roller for 15 min at room temperature, then centrifuged at 18,000 × g for 20 min, and supernatants were pooled. […]
I domain adhesion was determined colorimetrically, as described, here termed solid phase binding assay (SPBA). […]

[3] = system: C2C12-α1β1 cells; test: xCELLigence real-time adhesion of C2C12-α1β1 cells; format: cell-based, mouse; conditions: up to 1 h, compared to GFOGER, Fig. 6A
[4] = system: α1-Q214R I domain; test: SPBA of α1-Q214R mutant I domain; format: binding, human; conditions: Gln214 replaced with Arg, Fig. 8D
From the text: To test this hypothesis, we replaced the corresponding Q214 and Q215 in α1 and α2 I domains, respectively, with R, as in α10, and we replaced the R215 in the α10 I domain with Q, as in α1 and α2.
Fig. 8 Arginine substitution of I domain surface reduces binding to Toolkit peptide III-4. Wild type I domain from α1, α2 and α10 were allowed to adhere to Toolkit peptide III-4 that contains GROGER, as described in Fig. 1, and binding is shown in A, B and C, respectively. In D and E, the natural glutamine residues of α1, Q214, and of α2, Q215, was replaced with arginine. In F, the natural arginine, R215, of α10 was replaced with glutamine.
as §1
I domain adhesion was determined colorimetrically, as described, here termed solid phase binding assay (SPBA). Peptides were coated at 10 μg/ml for 1 h at 22 °C on Immulon-2 HB 96-well plates (Thermo Life Sciences, Basingstoke, UK), and blocked for 1 h with 200 μl of TBS containing 50 mg/ml bovine serum albumin. Wells were washed four times with 200 μl of the adhesion buffer (TBS with 1 mg/ml bovine serum albumin) before adding 100 μl of adhesion buffer containing 10 μg/ml of recombinant GST I domains in the presence of either 2 mM MgCl2 or EDTA for 1 h at room temperature. […]

[5] = system: C2C12-α10β1 cells; test: xCELLigence real-time adhesion of C2C12-α10β1 cells; format: cell-based, mouse; conditions: up to 1 h, compared with GPP10 negative control, Fig. 6C
Protocol: Fig. 3 Binding of α10β1-transfected C2C12 cells to collagens and selected Toolkit peptides. Peptides or collagens were coated on ePlates as described, then cells were added in the presence of 2 mM Mg^2 + or EDTA, and Cell Index value was collected over 1 h. […] B: time courses are shown of adhesion to selected Toolkit peptides or GPP-10.
To quantitate C2C12-α10β1 binding to collagen peptides, we used the impedance-based xCELLigence system (Acea) that allows label-free, dynamic monitoring of cell adhesion in real-time. The assay system expresses the adhesion-dependent rise in well impedance in units of cell index (CI), defined as (Rn − Rb) / 15; where Rn is the electrical impedance of each cell-containing well and Rb is the background impedance of the well with medium alone
Briefly, C2C12 cells were seeded at 2.5 × 10^4 cells/well in an E-plate (Roche Applied Science) pre-coated with peptides as for SPBA, and CI was measured for up to 2 h.

[6] = system: integrin α1β1; parameters: method as in 3 sources, ref [4]; PMID 19693543; doi:10.1007/s00441-009-0834-6; 4 Barczyk M. Carracedo S. Gullberg D. Integrins Cell Tissue Res. 339 1 2010 269 280 19693543 10.1007/s00441-009-0834-6 PMC2784866 ||| ref [12] = [12]; PMID 22654115; doi:10.1074/jbc.M112.353144; 12 Hamaia S.W. Pugh N. Raynal N. Nemoz B. Stone R. Gullberg D. Bihan D. Farndale R.W. Mapping of potent and specific binding motifs, GLOGEN and GVOGEA, for integrin alpha1beta1 using collagen toolkits ||| ref not given; conditions: cited from earlier work
From the text: The collagen-binding integrin family is complete, with four established members, α1β1, α2β1, α10β1 and α11β1. These are highly-conserved, heterodimeric receptors with an important structural feature in common, the presence of an I (inserted) domain which contains the metal ion-dependent adhesion site (MIDAS). The MIDAS is a constellation of electronegative residues at the distal surface of this 200-residue domain that, in the resting, non-ligated state, can co-ordinate a Mg^2 + ion. […] Many related motifs have now been identified using the Collagen Toolkits developed in this laboratory for the purpose. These are libraries of overlapping peptides of 27 amino acids of collagen primary sequence (guest sequence), flanked ... || Why would collagen II differ in this respect?

Substance	Adhesion of C2C12-α2β1 cells to short THP (time course) [1]	Binding of α10-R215Q I domain [2]	Adhesion of C2C12-α1β1 cells to short THP (time course) [3]	Binding of α1-Q214R I domain [4]	Cell adhesion to short THPs (time course) [5]	Affinity for integrin α1β1 ([6]; ref [12])	Affinity for integrin α1β1, discussion ([6]; ref not given)
GROGER [short triple-helical peptide containing GROGER]	bound quite well	restored binding; also recorded: better binding	bound quite well	impaired their binding; also recorded: failed to bind; also recorded: collapse of binding	poor binding; also recorded: of comparable level to the GPP10 negative control peptide	–	–
GLOGEN [short THP containing GLOGEN]	–	–	–	–	–	high-affinity ligand	high-affinity site
